# Data from US20150315241A1, “Antibiotic Peptides” (priority 2007, published 2015).
# Where a SMILES comes first, the peptide text is derived from it. Where no end group is shown, it is not given here. [ ]: non-standard residue; d: D form. Cha = N[C@@H](CC1CCCCC1)C(=O)O; Orn = NCCC[C@H](N)C(=O)O
# What was measured:
# E. coli D31 = format: cell-based, Escherichia coli; settings: D31, 20 h
# Outline: (§1)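 Growth is measured at 595 nm after the bacteria, set to 5×10^6 CFU/mL in 1% TSB, sit with two-fold dilutions of peptide for 20 hrs at 37° C. Final peptide spans 125 μg/mL to 60 ng/mL.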
# in vitro = in vitro ADME, mouse; settings: 25% aqueous mouse serum, 37° C.; read-out: Half-life time
# Experimental: Serum stability studies were carried out in duplicate as described by Hoffmann et al.. Briefly, 28 μL of an aqueous peptide or peptidomimetics solution (0.5 mg/mL) was added to 0.2 mL freshly pooled 25% mouse serum (Sigma-Aldrich GmbH, Taufkirchen, Germany) in water. The mixtures were incubated at 37° C. under gentle stirring. The proteins were precipitated with 40 μL of 15% aqueous TCA after incubation times of 0, 0.5, 1, 2, 4 and 6 h at 0° C. for 20 min before centrifuged (13500×G) at 4° C. for 5 min. The supernatants of all samples (240 μL) were neutralized with 1 mol/L aqueous NaOH and immediately stored at −20° C. The supernatants were analyzed by RP-HPLC using a linear acetonitrile gradient as described above with 0.1% TFA as ion pair reagent. Collected fractions of the main peaks were further analyzed by tandem mass spectrometry (MALDI-TOF/TOF-MS, 4700 Proteomics Analyzer, Applied Biosystems GmbH, Weiterstadt, Germany) in positive ion reflector mode using α-cyanohydroxycinnamic acid (50% CH3CN in 0.1% aqueous TFA) as matrix to identify the degradation products of the peptides and peptidomimetics, i.e., metabolites, at the different time points. Serum control samples consisted of 200 μL of pooled 25% mouse serum in water, which were also precipitated with 40 μL 15% aqueous TCA, as described before. Peptide reference samples consisted of 28 μL of the peptide stock solution diluted in 0.2 mL water and 40 μL of 15% aqueous trichloroacetic acid (TCA).
# [1] = system: S. enterica subsp. Enterica serovar. typhi G10215 ATCC 700408; format: cell-based, Salmonella enterica; settings: ATCC 700408, 20 h
# Outline: as §1
# E. coli 45849 = test: Growth inhibition assay (MIC); format: cell-based, Escherichia coli; settings: multidrug resistant strain; 1% TSB, 37° C., 20 hrs
# Experimental: (§2) The minimal inhibition concentrations (MIC) of the apidaecin-derived peptides and peptide-derivatives were determined by a growth inhibition assay using a serial peptide dilution in sterilized round-bottom 96-well plates (polystyrene, U-bottom, Greiner Bio-One GmbH) with a final volume of 100 μL per well. The bacteria, e.g., E. coli BL21 A1, were grown in nutrient broth (NB, Carl Roth GmbH+Co. KG, Karlsruhe, Germany) at 37° C. over night. To each well of the 96-well plate, 50 μL of the overnight culture adjusted to 5×10^6 CFU/mL in 1% TSB were added. Lyophilized peptides and peptidomimetics were dissolved in 1% TSB (tryptic soy broth) or water to give a final concentration of 250 μg/mL. Fifty μL of the peptide or peptidomimetics solution were added to the first well of a row on the plate and mixed. Fifty μL of the first well containing the peptide solution were transferred to the second well, mixed and again 50 μL transferred to the next well and so on. Thereby, a two-fold dilution series was obtained starting at 250 μg/mL in the first well down to 120 ng/mL in the 12th well of a row giving a final peptide or peptidomimetics concentration from 125 μg/mL (well 1) to 60 ng/mL (well 12). Plates were incubated at 37° C. for 20 hrs. The absorbance was measured at 595 nm using a TECAN micro plate spectrophotometer (Tecan, Germany). All peptides and peptidomimetics were measured in triplicates. Sterilized water was used as a negative control.
# (§3) The following multidrug resistant bacteria strains were tested: • Eschericha coli 45849 and D31, • Klebsiella pneumoniae 123132 and K6, • Salmonella typhi S5 and Salmonella enterica subsp. enterica serovar Typhimurium (ATCC 700408), • Rhizobium radiobacter (ATCC 15955 deposited as Agrobacterium tumefaciens).
# [2] = system: K. Pneumonia K6, ATCC 700603; test: Growth inhibition assay (MIC); format: cell-based, Klebsiella pneumoniae; settings: multidrug resistant strain; 1% TSB, 37° C., 20 hrs
# Outline: as §1
# K. Pneumonia 123132 = test: Growth inhibition assay (MIC); format: cell-based, Klebsiella pneumoniae; settings: multidrug resistant strain; 1% TSB, 37° C., 20 hrs
# Outline: as §1
# S. typhi S5 = format: cell-based, Salmonella typhi; settings: S5, 20 h
# Experimental: as §2, §3
# E. coli BL 21 AI = test: Growth inhibition assay (MIC); format: cell-based, Escherichia coli; settings: 1% TSB, 37° C., 20 hrs
# Outline: (§4)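 Two-fold serial dilution in 1% TSB, final 125 μg/mL to 60 ng/mL; inoculum 5×10^6 CFU/mL (before 1:1 mixing with peptide). Incubated 20 hrs at 37° C., growth read as absorbance at 595 nm, in triplicate with sterile water as negative control.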
# [3] = system: R. radiobatter ATCC 15955; test: Growth inhibition assay (MIC); format: cell-based, Rhizobium radiobacter; settings: multidrug resistant strain; 1% TSB, 37° C., 20 hrs
# Experimental: as §2, §3
# M. luteus ATCC 10240 = format: cell-based, Micrococcus luteus; settings: ATCC 10240, 20 h
# Outline: as §4
Compound,MIC E. coli D31 (E. coli D31),half-life at 0.061 mg/mL (in vitro),MIC S. enterica subsp. Enterica serovar. typhi G10215 ATCC 700408 [1],MIC E. coli 45849 (E. coli 45849),"MIC K. Pneumonia K6, ATCC 700603 [2]",MIC K. Pneumonia 123132 (K. Pneumonia 123132),MIC S. typhi S5 (S. typhi S5),MIC E. coli BL 21 AI (E. coli BL 21 AI),MIC R. radiobatter ATCC 15955 [3],MIC M. luteus ATCC 10240 (M. luteus ATCC 10240)
GNNRPVYIPQPRPPHPRL-NH2 [compound 6],1 µg/mL,15 min,0.125 µg/mL,0.5 µg/mL,16 µg/mL,16 µg/mL,0.125 µg/mL,,,
Ac-KNNRPVYIPKPRPPHPRL-NH2 [compound 22],16 µg/mL,,1 µg/mL,1 µg/mL,16 µg/mL,16 µg/mL,1 µg/mL,1.95 µg/mL,<0.16 µg/mL,1.95 µg/mL
CC[C@H](C)[C@H](NC(=O)[C@@H]1CCCN1C(=O)[C@H](CCCNC(=N)N)NC(=O)[C@@H]1CCCN1C(=O)[C@H](Cc1c[nH]cn1)NC(=O)[C@@H]1CCCN1C(=O)[C@@H]1CCCN1C(=O)[C@H](CCCNC(=N)N)NC(=O)[C@@H]1CCCN1C(=O)[C@H](CCCNC(=N)N)NC(=O)[C@@H]1CCCN1C(=O)[C@@H](NC(=O)[C@H](Cc1ccc(O)cc1)NC(=O)[C@@H](NC(=O)[C@@H]1CCCN1C(=O)[C@H](CCCNC(=N)N)NC(=O)[C@H](CC(N)=O)NC(=O)[C@H](CC(N)=O)NC(=O)[C@H](CCCN)NC(C)=O)C(C)C)[C@@H](C)CC)C(=O)N[C@@H](CCCNC(=N)N)C(=O)N[C@H](C(=O)O)C(C)C [compound 24] (Ac-[Orn]NNRPVYIPRPRPPHPRPIRV-OH),,240 min,,,,,,,,
GNNRPVYIPQPRPPHPRI-NH2 [compound 4],,15 min,,,,,,,,
CC[C@H](C)[C@H](NC(=O)[C@H](Cc1ccc(O)cc1)NC(=O)[C@@H](NC(=O)[C@@H]1CCCN1C(=O)[C@H](CCCNC(=N)N)NC(=O)[C@H](CC(N)=O)NC(=O)[C@H](CC(N)=O)NC(=O)CN)C(C)C)C(=O)N1CCC[C@H]1C(=O)N[C@@H](CCCNC(=N)N)C(=O)N1CCC[C@H]1C(=O)N[C@@H](CCCNC(=N)N)C(=O)N1CCC[C@H]1C(=O)N1CCC[C@H]1C(=O)N[C@@H](Cc1c[nH]cn1)C(=O)N1CCC[C@H]1C(=O)N[C@@H](CCCNC(=N)N)C(=O)N[C@@H](CC1CCCCC1)C(N)=O [compound 37] (H-GNNRPVYIPRPRPPHPR[Cha]-NH2),8 µg/mL,,8 µg/mL,16 µg/mL,32 µg/mL,16 µg/mL,16 µg/mL,,10.5 µg/mL,
KNNRPVYIPKPRPPHPRL-NH2 [compound 21],8 µg/mL,,0.25 to 0.5 µg/mL,<0.25 µg/mL,8 µg/mL,4 µg/mL,1 µg/mL,1.95 to 3.91 µg/mL,0.65 µg/mL,
